# Measured values as given in patent US10717716B2, “1,3,4-oxadiazole derivative compounds as histone deacetylase 6 inhibitor, and the pharmaceutical composition comprising the same” (Chong Kun Dang Pharmaceutical Corp., priority 2015, dated 2020).
# Molecular target: T1, human recombinant HDAC6 (Homo sapiens, UniProt Q9UBN7)
# T1 construct: purchased Calbiochem 382180
# T1 sequence (Q9UBN7 1-1215): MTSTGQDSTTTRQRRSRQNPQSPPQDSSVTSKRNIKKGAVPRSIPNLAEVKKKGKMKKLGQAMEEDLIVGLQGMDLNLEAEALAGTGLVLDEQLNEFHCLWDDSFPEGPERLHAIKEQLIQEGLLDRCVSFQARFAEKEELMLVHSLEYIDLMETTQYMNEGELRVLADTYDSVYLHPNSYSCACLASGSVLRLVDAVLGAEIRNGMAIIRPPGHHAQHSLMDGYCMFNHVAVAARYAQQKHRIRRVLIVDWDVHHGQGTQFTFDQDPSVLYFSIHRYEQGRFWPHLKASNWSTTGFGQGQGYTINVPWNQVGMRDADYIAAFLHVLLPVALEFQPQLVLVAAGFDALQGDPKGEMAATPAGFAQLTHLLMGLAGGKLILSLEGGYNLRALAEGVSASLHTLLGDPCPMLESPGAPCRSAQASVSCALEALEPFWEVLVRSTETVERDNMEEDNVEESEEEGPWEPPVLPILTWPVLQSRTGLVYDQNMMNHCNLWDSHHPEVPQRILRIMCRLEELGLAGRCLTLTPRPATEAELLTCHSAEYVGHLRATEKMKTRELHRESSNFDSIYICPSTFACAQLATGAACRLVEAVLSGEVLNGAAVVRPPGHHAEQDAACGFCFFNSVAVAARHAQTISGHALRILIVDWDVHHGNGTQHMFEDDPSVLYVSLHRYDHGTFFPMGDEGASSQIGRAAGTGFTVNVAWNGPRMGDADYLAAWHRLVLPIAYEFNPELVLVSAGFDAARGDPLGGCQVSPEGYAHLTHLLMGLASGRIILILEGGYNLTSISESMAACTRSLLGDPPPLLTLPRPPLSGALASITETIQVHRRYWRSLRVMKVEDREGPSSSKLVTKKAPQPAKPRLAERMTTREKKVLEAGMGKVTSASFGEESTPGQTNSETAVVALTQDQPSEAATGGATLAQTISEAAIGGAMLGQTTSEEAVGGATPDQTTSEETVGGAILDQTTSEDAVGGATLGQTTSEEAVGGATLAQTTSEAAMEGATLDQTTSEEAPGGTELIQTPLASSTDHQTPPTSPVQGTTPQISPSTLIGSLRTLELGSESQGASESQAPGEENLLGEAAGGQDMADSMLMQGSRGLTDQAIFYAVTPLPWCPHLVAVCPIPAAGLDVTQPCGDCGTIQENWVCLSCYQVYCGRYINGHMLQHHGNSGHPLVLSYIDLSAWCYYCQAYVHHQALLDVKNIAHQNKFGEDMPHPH
# Assay: HDAC6 enzyme activity inhibition assay (HDAC Fluorimetric Drug Discovery Kit)
# Format: biochemical
# Conditions: for HDAC6 selectivity (fold): HDAC6 over HDAC1; for IC50: human recombinant HDAC6, same protocol as HDAC1, read-out: HDAC6
# Summary of the method: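 Human recombinant HDAC1 or HDAC6 (0.3 μg) reacted with 10 μM Fluor de Lys-SIRT1 substrate and 5-fold compound dilutions for 60 min at 30 °C. Developer II added for 30 min, fluorescence read at Ex 360/Em 460; IC50 calculated from the readings.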
SMILES,HDAC6 selectivity (fold),IC50 [nM]
"O=C(N1CCOCC1)N(Cc1ccc(-c2nnc(C(F)(F)F)o2)cc1)c1ncccn1 [Compound 21425, N-(pyrimidin-2-yl)-N-(4-(5-(trifluoromethyl)-1,3,4-oxadiazol-2-yl)benzyl)morpholine-4-carboxamide]",77,130
"O=C(N1CCOCC1)N(Cc1ccccc1)Cc1ccc(-c2nnc(C(F)(F)F)o2)cc1 [Compound 21462, N-benzyl-N-(4-(5-(trifluoromethyl)-1,3,4-oxadiazol-2-yl)benzyl)morpholine-4-carboxamide]",7,1420
"O=C(NCC1CCOCC1)N(Cc1ccc(-c2nnc(C(F)(F)F)o2)cc1)c1ccccc1 [Compound 21357, 1-Phenyl-3-((tetrahydro-2H-pyran-4-yl)methyl)-1-(4-(5-(trifluoromethyl)-1,3,4-oxadiazol-2-yl)benzyl)urea]",21,472
"O=C(N1CCS(=O)(=O)CC1)N(Cc1ccc(-c2nnc(C(F)(F)F)o2)cc1)c1ccc(Cl)cc1 [Compound 21394, N-(4-chlorophenyl)-N-(4-(5-(trifluoromethyl)-1,3,4-oxadiazol-2-yl)benzyl)thiomorpholine-4-carboxamide 1,1-dioxide]",56,177
"CCOC(=O)CN1[C@H](C)CN(C(=O)N(Cc2ccc(-c3nnc(C(F)(F)F)o3)cc2)c2ccccc2)C[C@@H]1C [Compound 21404, Ethyl 2-((2S,6R)-2,6-dimethyl-4-(phenyl(4-(5-(trifluoromethyl)-1,3,4-oxadiazol-2-yl)benzyl)carbamoyl)piperazin-1-yl)acetate]",40,247
"Cc1ccc(N(Cc2ccc(-c3nnc(C(F)(F)F)o3)cc2)C(=O)N2CCS(=O)(=O)CC2)cc1 [Compound 21445, N-(p-tolyl)-N-(4-(5-(trifluoromethyl)-1,3,4-oxadiazol-2-yl)benzyl)thiomorpholine-4-carboxamide 1,1-dioxide]",33,303
"COc1cccc(N(Cc2ccc(-c3nnc(C(F)F)o3)cc2F)C(=O)N2CCN(C)CC2)c1 [Compound 21473, N-(4-(5-(difluoromethyl)-1,3,4-oxadiazol-2-yl)-2-fluorobenzyl)-N-(3-methoxyphenyl)-4-methylpiperazine-1-carboxamide]",313,32
"CC(C)N(Cc1ccc(-c2nnc(C(F)(F)F)o2)cc1)C(=O)N1CCS(=O)(=O)CC1 [Compound 21397, N-isopropyl-N-(4-(5-(trifluoromethyl)-1,3,4-oxadiazol-2-yl)benzyl)thiomorpholine-4-carboxamide 1,1-dioxide]",11,882
"O=C(N1CCS(=O)(=O)CC1)N(Cc1ccc(-c2nnc(C(F)(F)F)o2)cn1)c1ccccc1 [Compound 21372, N-phenyl-N-((5-(5-(trifluoromethyl)-1,3,4-oxadiazol-2-yl)pyridin-2-yl)methyl)thiomorpholine-4-carboxamide 1,1-dioxide]",132,76
"O=C(N1CCS(=O)(=O)CC1)N(Cc1ccc(-c2nnc(C(F)F)o2)cc1)c1ccccc1C(F)(F)F [Compound 21450, N-(4-(5-(difluoromethyl)-1,3,4-oxadiazol-2-yl)benzyl)-N-(2-(trifluoromethyl)phenyl)thiomorpholine-4-carboxamide 1,1-dioxide]",19,530
"CN1CCN(C(=O)N(Cc2ccc(-c3nnc(C(F)F)o3)cc2F)c2ccccc2)CC1 [Compound 21378, N-(4-(5-(difluoromethyl)-1,3,4-oxadiazol-2-yl)-2-fluorobenzyl)-4-methyl-N-phenylpiperazine-1-carboxamide]",500,20

# Now from value to molecule:
HDAC6 selectivity (fold),IC50 [nM],SMILES
174,57,"O=C(N1CCS(=O)(=O)CC1)N(Cc1ccc(-c2nnc(C(F)F)o2)cc1F)c1ccc(Cl)cc1 [Compound 21809, N-(4-chlorophenyl)-N-(4-(5-(difluoromethyl)-1,3,4-oxadiazol-2-yl)-2-fluorobenzyl)thiomorpholine-4-carboxamide 1,1-dioxide]"
47,214,"O=C(N1CCS(=O)(=O)CC1)N(Cc1ccc(-c2nnc(C(F)(F)F)o2)cc1F)c1cccc(OC(F)(F)F)c1 [Compound 21528, N-(2-fluoro-4-(5-(trifluoromethyl)-1,3,4-oxadiazol-2-yl)benzyl)-N-(3-(trifluoromethoxy)phenyl)thiomorpholine-4-carboxamide 1,1-dioxide]"
38,265,"CCN1[C@H](C)CN(Cc2ccc(N(Cc3ccc(-c4nnc(C(F)F)o4)cc3F)C(=O)N3CCS(=O)(=O)CC3)cc2)C[C@@H]1C [Compound 21935, N-(4-(5-(difluoromethyl)-1,3,4-oxadiazol-2-yl)-2-fluorobenzyl)-N-(4-(((3S,5R)-4-ethyl-3,5-dimethylpiperazin-1-yl)methyl)phenyl)thiomorpholine-4-carboxamide 1,1-dioxide]"
278,36,"O=C(N1CCS(=O)(=O)CC1)N(Cc1ccc(-c2nnc(C(F)F)o2)cc1F)c1cccc(OC(F)(F)F)c1 [Compound 21529, N-(4-(5-(difluoromethyl)-1,3,4-oxadiazol-2-yl)-2-fluorobenzyl)-N-(3-(trifluoromethoxy)phenyl)thiomorpholine-4-carboxamide 1,1-dioxide]"
89,112,"O=C(N1CCS(=O)(=O)CC1)N(Cc1ccc(-c2nnc(C(F)F)o2)cc1)c1ccc(-c2ccc3c(c2)OCO3)cc1 [Compound 21494, N-(4-(benzo[d][1,3]dioxol-5-yl)phenyl)-N-(4-(5-(difluoromethyl)-1,3,4-oxadiazol-2-yl)benzyl)thiomorpholine-4-carboxamide 1,1-dioxide]"
290,35,"COc1ccc(N(Cc2ccc(-c3nnc(C(F)F)o3)cn2)C(=O)N2CCN(C)CC2)cc1 [Compound 21623, N-((5-(5-(difluoromethyl)-1,3,4-oxadiazol-2-yl)pyridin-2-yl)methyl)-N-(4-methoxyphenyl)-4-methylpiperazine-1-carboxamide]"
97,103,"O=C(NCCN1CCN(c2ccncc2)CC1)N(Cc1ccc(-c2nnc(C(F)F)o2)cc1F)c1ccccc1 [Compound 22009, 1-(4-(5-(Difluoromethyl)-1,3,4-oxadiazol-2-yl)-2-fluorobenzyl)-1-phenyl-3-(2-(4-(pyridin-4-yl)piperazin-1-yl)ethyl)urea]"
185,54,"CCN1CCN(C(=O)N(Cc2ccc(-c3nnc(C(F)F)o3)cc2F)c2cccc(OC)c2)CC1 [Compound 21890, N-(4-(5-(Difluoromethyl)-1,3,4-oxadiazol-2-yl)-2-fluorobenzyl)-4-ethyl-N-(3-methoxyphenyl)piperazine-1-carboxamide]"
400,25,"CN1CCN(C(=O)N(Cc2ccc(-c3nnc(C(F)F)o3)cn2)c2ccc(F)cc2)CC1 [Compound 21600, N-((5-(5-(difluoromethyl)-1,3,4-oxadiazol-2-yl)pyridin-2-yl)methyl)-N-(4-fluorophenyl)-4-methylpiperazine-1-carboxamide]"
7,1380,"O=C(NCCN(Cc1ccccc1)Cc1ccccc1)N(Cc1ccc(-c2nnc(C(F)F)o2)cc1F)c1ccccc1 [Compound 22017, 3-(2-(Dibenzylamino)ethyl)-1-(4-(5-(difluoromethyl)-1,3,4-oxadiazol-2-yl)-2-fluorobenzyl)-1-phenylurea]"
42,237,"CC(C)(C)OC(=O)N(Cc1ccc(-c2nnc(C(F)F)o2)cc1)c1ccccc1 [Compound 21568, Tert-butyl (4-(5-(difluoromethyl)-1,3,4-oxadiazol-2-yl)benzyl)(phenyl)carbamate]"
